Assay [1] addresses AgTG3 (Anopheles gambiae, UniProt D2K8K8). As to the kind of experiment: biochemical. The note with it: dose–response curves in the range of 0.5–100 μM, FITC-CAD plate assay; read-out: IC50 for inhibition of AgTG3. As for the experimental part: Plugin-C (25 μg/well) was incubated in black 96-well Ni-coated plates (Pierce 15342) for 2 h at room temperature or overnight at 4°C. Plates were washed three times with 200 μL of TBS and loaded with 0.5 μg of AgTG3 in 50 μL TBS buffer. DHI inhibitors were added for 1 h to block the enzyme, followed by 50 μL of 2× assay buffer (2× TBS, 20 mM CaCl2, 100 μM FITC-CAD, 2 mM DTT). Wells were incubated for 60 min at room temperature, washed three times with 200 μL of TBS, and filled to a final volume of 100 μL for fluorescence measurements in a microplate reader (Biotek Synergy 2). The z-score was calculated based on the mean and standard deviation of three replicates of inhibitor compared to a DMSO control, zi=x¯DMSO-x¯i/σDMSO+σi .
The targeted chemical library was screened for inhibition of AgTG3 at 100 μM in a FITC-CAD plate assay (Figure 3A), performed in triplicate as previously described. Hit-calling was based on >67% decrease in fluorescence compared to DMSO and z > 5. Seven compounds fulfilled these criteria in the primary assay.
To verify the results of this preliminary assay, dose–response curves in the range of 0.5–100 μM were determined for 27 structurally related compounds within the targeted library (Additional file 3: Table S2 and Additional file 4: Table S3). […] Selected stereoisomers present in the targeted library were compared in equivalent dose–response assays. Inhibition of AgTG3 was specific for the (S)-DHI isomer of 1 (Figure 4A), the (R) isomer (4) displaying no activity (IC50 > 100 μM).

The target of assay [2] is T1, human caspase-1 (Homo sapiens, UniProt P29466).
T1 construct: purchased Abcam
T1 sequence (P29466 120-297 limits assumed): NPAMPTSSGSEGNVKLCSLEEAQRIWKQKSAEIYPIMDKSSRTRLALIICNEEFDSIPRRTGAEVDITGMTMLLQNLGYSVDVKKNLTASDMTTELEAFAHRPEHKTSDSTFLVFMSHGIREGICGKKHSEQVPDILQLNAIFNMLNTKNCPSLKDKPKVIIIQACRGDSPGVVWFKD
T1 sequence (P29466 317-404 limits assumed): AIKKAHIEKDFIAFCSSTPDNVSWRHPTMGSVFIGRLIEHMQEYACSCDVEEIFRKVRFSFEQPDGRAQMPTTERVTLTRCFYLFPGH
As to the kind of experiment: Cysteine protease inhibition assay, caspase-1 (Ac-YVAD-pNA). It is filed as biochemical. To be noted: 3 at 100 μM, compared to a DMSO control, chromogenic assay. On the procedure: The activity of caspase-1 was determined by use of chromogenic substrate Ac-YVAD-pNA (Enzo Life Sciences, NY, USA). The assay was performed by adding 45 μL of 1 Unit caspase-1 (Abcam, MA, USA) and 5 μL of Ac-YVAD-pNA (final concentration, 5 μM) to 50 μL assay buffer (50 mM HEPES pH 7.4, 10 mM DTT, 1 mM EDTA, 0.1% CHAPS, 20% glycerol). Substrate cleavage after 1 h incubation at 37°C was measured by […] absorbance at 400 nm in a benchtop UV/Vis spectrophotometer (UV1800, Shimadzu, Kyoto, Japan).
Transglutaminases and cysteine proteases have a similar catalytic mechanism involving an active site cysteine and formation of a thioacyl intermediate. […] To test this hypothesis, the inhibition of two cysteine proteases, human caspase-1 and recombinant tobacco etch virus (TEV) protease by 3 at 100 μM were tested using a chromogenic and SDS-PAGE assay, respectively (Figure 9). […] Neither human caspase-1 nor TEV are endogenous proteins in A. gambiae, which may well contain other endogenous targets of 1–3, not least the two other transglutaminases in the A. gambiae genome.

SMILES strings stand for the structures.

Sequence of AgTG3 (D2K8K8 entry or part of it): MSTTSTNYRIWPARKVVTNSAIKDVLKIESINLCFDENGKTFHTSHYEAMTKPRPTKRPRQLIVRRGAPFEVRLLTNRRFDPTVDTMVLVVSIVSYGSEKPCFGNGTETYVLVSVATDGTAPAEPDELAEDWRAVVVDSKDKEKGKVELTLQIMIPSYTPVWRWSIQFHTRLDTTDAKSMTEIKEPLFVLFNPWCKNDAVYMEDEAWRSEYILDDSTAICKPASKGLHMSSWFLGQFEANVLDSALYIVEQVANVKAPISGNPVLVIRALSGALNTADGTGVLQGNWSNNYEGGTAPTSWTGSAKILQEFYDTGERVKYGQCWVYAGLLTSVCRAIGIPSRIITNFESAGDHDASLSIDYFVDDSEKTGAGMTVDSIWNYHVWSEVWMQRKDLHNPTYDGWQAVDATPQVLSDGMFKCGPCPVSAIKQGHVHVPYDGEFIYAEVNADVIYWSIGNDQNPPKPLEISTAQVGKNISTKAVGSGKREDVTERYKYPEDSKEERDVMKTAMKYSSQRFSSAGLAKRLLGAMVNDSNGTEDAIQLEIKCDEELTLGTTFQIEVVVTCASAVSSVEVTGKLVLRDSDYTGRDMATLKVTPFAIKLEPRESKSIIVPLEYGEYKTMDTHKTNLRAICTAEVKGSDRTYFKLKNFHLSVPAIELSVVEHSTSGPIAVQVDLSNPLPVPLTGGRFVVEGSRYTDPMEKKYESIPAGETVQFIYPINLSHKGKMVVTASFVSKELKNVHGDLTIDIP

Broadly, the IC50 is the concentration at which inhibition is half-maximal. Regarding `O=C(N[C@@H](Cc1c[nH]c2ccccc12)C(=O)NC[C@@H]1CC(Br)=NO1)OCc1cnc2ccccc2c1`, in assay [1], the IC50 is 6.1 µM. Also, the “Inhibition of caspase-1” value in assay [2] is “no inhibition of the protease”.

Source of the values: article PMC4113009, “Dihydroisoxazole inhibitors of Anopheles gambiae seminal transglutaminase AgTG3” (Malaria Journal, 2014).
